The record followed here is patent publication US8592415B2, “Selective kinase inhibitors” (Reaction Biology Corp., priority 2009, dated 2013).

Broadly, the IC50 is the midpoint of a concentration-inhibition curve. Lower therefore signals greater potency.

Common to all, as to assay type: biochemical
Assay [1] addresses JAK3 (Homo sapiens (Human), UniProt P52333). The assay is described as follows: In vitro JAK kinase enzymatic assay (JAK3). How it is done:
(§1) The JAK3 kinase is recombinant human protein (catalytic domain, amino acids 781-1124 with GST-tag), expressed in insect cells (Invitrogen Catalog PV3855). The substrate is poly-glutamic acid-tyrosin peptide, Poly-(GT) (4:1) (Sigma-Aldrich, catalog P7244). [γ-^33P]-ATP is purchased from Perkin Elmer (catalog NEG602H001MC) (EasyTides). Kinase reaction buffer is 100 mM HEPES (pH 7.5), 20 mM MgCl2, 2 mM EGTA, 0.02% Brij 35. The JAK1 (Invitrogen Catalog PV4774), JAK2 (Invitrogen Catalog PV4210) and TYK2 Invitrogen Catalog PV4790) enzymatic assays are performed in the similar way. JAK1 and JAK2 substrate is Poly-(GT) (4:1), but TYK2 substrate is peptide with sequences of […]. The reaction is carried for 2 hours at room temperature. After the reactions are finished or stopped, portion or all the reaction mixtures are transferred onto filter paper P81 Phosphocellulose paper (Whatman catalog 3698-915) for binding the final radioisotope labeled products. The unreacted phosphate are washed away without interfering with the detection of real phosphorylated products. The final product can be detected by instruments such as scintillation counter, top counter or phosphoimager. The enzymatic assays can also performed in assays described those described in the art [e.g., Ma H et al, Expert Opin. Drug Discov. 3, 607-621 (2008); Olive D M, Expert Rev Proteomics, 1, 327-341 (2004)].
(§2) Signal=Bottom+(Top−Bottom)/(1+10^((Log(IC50)−Log [I])*Hill Slope) Bottom and Top refer to the post and pre-transition baselines, respectively.

For assay [2], the target named is JAK1 (Homo sapiens, UniProt P23458). As to the kind of experiment: In vitro JAK kinase enzymatic assay (JAK1). How it is done: as §1, §2
Assay [3] has as its target TYK2 (Homo sapiens (Human), UniProt P29597). The assay is described as follows: In vitro JAK kinase enzymatic assay (TYK2). On the procedure: as §1, §2
Assay [4] concerns the target JAK2. As to the kind of experiment: In vitro JAK kinase enzymatic assay (JAK2). How it is done: as §1, with “The” for “The JAK3 kinase is recombinant human protein (catalytic domain, amino acids 781-1124 with GST-tag), expressed in insect cells (Invitrogen Catalog PV3855). The”, “After the reactions are finished or stopped, portion or all the reaction mixtures are transferred onto filter paper P81 Phosphocellulose paper (Whatman catalog 3698-915) for binding the final radioisotope labeled products.” left out, “Discov.” for “Discov. 3, 607-621 (2008); Olive D M, Expert Rev Proteomics, 1, 327-341 (2004)].”
as §2

Assay [5] deals with JAK2 (Homo sapiens, UniProt O60674). The assay is described as follows: In vitro JAK kinase enzymatic assay (JAK2). On the procedure: as §1, with “The” for “The JAK3 kinase is recombinant human protein (catalytic domain, amino acids 781-1124 with GST-tag), expressed in insect cells (Invitrogen Catalog PV3855). The”, “After the reactions are finished or stopped, portion or all the reaction mixtures are transferred onto filter paper P81 Phosphocellulose paper (Whatman catalog 3698-915) for binding the final radioisotope labeled products.” left out, “Discov.” for “Discov. 3, 607-621 (2008); Olive D M, Expert Rev Proteomics, 1, 327-341 (2004)].”
JAK2 (Homo sapiens, UniProt O60674), sequence (O60674 whole entry, looked up, the tested form may be a part): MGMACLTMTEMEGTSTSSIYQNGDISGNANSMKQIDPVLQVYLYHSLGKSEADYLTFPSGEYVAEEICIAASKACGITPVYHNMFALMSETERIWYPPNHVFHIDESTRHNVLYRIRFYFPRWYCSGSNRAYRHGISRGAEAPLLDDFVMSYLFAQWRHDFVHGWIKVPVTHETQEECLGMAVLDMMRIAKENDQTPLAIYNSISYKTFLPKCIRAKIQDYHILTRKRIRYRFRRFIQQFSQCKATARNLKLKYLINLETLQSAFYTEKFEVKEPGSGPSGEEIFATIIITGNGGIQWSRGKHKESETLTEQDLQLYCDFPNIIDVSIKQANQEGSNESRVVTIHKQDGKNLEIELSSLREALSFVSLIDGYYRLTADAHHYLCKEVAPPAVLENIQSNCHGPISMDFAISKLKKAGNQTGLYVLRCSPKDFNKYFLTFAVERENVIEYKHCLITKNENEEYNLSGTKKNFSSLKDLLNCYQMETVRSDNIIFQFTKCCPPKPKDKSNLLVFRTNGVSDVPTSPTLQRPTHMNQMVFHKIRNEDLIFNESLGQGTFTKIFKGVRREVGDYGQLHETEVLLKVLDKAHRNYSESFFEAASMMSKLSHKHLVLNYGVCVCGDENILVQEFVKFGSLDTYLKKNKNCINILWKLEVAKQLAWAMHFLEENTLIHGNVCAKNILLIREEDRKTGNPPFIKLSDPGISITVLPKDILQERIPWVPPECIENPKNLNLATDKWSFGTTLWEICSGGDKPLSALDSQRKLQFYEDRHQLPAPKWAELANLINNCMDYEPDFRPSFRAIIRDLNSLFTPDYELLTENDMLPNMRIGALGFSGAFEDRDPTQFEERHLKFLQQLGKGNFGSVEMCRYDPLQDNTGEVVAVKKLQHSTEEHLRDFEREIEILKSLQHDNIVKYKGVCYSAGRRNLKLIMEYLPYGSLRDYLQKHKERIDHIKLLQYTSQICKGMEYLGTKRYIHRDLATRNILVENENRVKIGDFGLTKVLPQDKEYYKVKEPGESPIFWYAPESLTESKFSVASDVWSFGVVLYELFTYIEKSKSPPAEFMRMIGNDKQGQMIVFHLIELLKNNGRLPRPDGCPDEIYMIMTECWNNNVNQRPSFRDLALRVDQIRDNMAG
as §2

TYK2, sequence (P29597 whole entry, the tested form may be a part): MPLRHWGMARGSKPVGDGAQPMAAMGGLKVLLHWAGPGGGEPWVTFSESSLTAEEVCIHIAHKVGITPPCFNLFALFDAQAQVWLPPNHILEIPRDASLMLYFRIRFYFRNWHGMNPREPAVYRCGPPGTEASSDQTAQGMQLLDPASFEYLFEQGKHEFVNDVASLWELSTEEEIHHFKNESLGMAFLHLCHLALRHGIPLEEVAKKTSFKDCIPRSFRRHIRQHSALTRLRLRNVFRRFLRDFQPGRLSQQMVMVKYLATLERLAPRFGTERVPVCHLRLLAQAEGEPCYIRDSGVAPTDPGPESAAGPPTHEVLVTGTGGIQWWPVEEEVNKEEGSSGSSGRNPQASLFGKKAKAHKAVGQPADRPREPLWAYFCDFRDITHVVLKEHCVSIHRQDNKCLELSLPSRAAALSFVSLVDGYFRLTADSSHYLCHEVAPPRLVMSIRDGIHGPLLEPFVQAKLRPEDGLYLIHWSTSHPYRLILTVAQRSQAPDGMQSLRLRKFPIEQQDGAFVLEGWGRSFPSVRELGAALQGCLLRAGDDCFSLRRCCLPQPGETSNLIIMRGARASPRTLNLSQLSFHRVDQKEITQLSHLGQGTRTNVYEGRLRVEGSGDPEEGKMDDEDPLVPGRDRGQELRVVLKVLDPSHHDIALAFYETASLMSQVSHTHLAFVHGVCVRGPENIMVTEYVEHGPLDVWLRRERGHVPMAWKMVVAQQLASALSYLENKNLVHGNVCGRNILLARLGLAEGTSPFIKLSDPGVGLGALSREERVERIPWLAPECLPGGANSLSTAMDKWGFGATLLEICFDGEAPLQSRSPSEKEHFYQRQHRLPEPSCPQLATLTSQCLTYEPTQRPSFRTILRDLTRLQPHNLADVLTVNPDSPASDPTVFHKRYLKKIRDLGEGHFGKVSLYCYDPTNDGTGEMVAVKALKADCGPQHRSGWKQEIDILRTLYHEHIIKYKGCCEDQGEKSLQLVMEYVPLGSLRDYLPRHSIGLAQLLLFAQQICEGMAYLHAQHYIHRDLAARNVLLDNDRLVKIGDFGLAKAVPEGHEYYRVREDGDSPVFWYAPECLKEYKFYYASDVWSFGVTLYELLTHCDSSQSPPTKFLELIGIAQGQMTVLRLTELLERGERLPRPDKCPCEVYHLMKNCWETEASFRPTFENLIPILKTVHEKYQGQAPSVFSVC
JAK3, sequence (P52333 781-1124): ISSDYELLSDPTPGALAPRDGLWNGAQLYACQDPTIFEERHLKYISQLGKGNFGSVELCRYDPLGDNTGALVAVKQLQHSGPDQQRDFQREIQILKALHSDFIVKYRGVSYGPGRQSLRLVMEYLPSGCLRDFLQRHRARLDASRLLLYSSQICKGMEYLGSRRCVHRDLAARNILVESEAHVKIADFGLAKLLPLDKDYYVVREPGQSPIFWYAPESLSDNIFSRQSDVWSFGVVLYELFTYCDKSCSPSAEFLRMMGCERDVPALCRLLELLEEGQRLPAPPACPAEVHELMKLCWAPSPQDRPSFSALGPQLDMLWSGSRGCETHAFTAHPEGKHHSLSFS

On to “N-[3-(quinoxalin-2-yl)phenyl]cyclopropanecarboxamide [Example 14]”, for which the 50% inhibitory concentration (IC50) in assay [1], in assay [2] and in assay [3] was over 50 µM each time.

As to `CC(Nc1cccc(-c2cnc3ccccc3n2)c1)=C1CCOC1=O` (racemic) [Example 31, (E/Z)-3-(1-(3-(quinoxalin-2-yl)phenylamino)ethylidene)dihydrofuran-2(3H)-one], the IC50 in assay [1], in assay [2] and in assay [3] was over 10 µM each time.

Take `O=C(CN1CCNCC1)Nc1cccc(-c2cnc3ccccc3n2)c1` [Example 35, 2-(piperazin-1-yl)-N-(3-(quinoxalin-2-yl)phenyl)acetamide]: the IC50 in assay [1] was 13 µM; in assay [4], over 20 µM; in assay [2], over 20 µM; in assay [3], over 20 µM.

For the compound `CN1CCN(CC(=O)Nc2cccc(-c3cnc4ccccc4n3)c2)CC1` [Example 17, 2-(4-methylpiperazin-1-yl)-N-[3-(quinoxalin-2-yl)phenyl]acetamide], the IC50 in assay [1], in assay [4], in assay [2] and in assay [3] was over 50 µM each time.

In the case of `CS(=O)(=O)OCC(=O)Nc1cccc(-c2cnc3ccccc3n2)c1` [Example 27, 2-oxo-2-(3-(quinoxalin-2-yl)phenylamino)ethyl methanesulfonate], the IC50 in assay [1] is 0.0006 µM; in assay [4] it was over 10 µM; in assay [2], over 10 µM; in assay [3] it was over 10 µM.

With `O=C(CO)Nc1cccc(-c2cnc3ccccc3n2)c1` [Example 29, 2-hydroxy-N-(3-(quinoxalin-2-yl)phenyl)acetamide], the IC50 in assay [1], in assay [5], in assay [2] and in assay [3] was over 10 µM each time.

In the case of `CSCC(=O)Nc1cccc(-c2cnc3ccccc3n2)c1` [Example 25, 2-(methylthio)-N-(3-(quinoxalin-2-yl)phenyl)acetamide], the IC50 in assay [1], in assay [4], in assay [2] and in assay [3] was over 10 µM in each case.

As for `O=C(Cn1cncn1)Nc1cccc(-c2cnc3ccccc3n2)c1` [Example 7, N-[3-(quinoxalin-2-yl)phenyl]-2-(1H-1,2,4-triazol-1-yl)acetamide], the concentration for half-maximal inhibition (IC50) in assay [1], in assay [4], in assay [2] and in assay [3] was over 50 µM in each case.

On to `CCC(=O)Nc1cccc(-c2cnc3ccccc3n2)c1` [Example 6, N-[3-(quinoxalin-2-yl)phenyl]propionamide], for which the IC50 in assay [1], in assay [5], in assay [2] and in assay [3] was over 50 µM each time.

On to `COc1ccc(NC(=O)Nc2cccc(-c3cnc4ccccc4n3)c2)cc1` [Example 10, 1-(4-methoxyphenyl)-3-[3-(quinoxalin-2-yl)phenyl]urea], for which the IC50 in assay [1], in assay [4], in assay [2] and in assay [3] was over 50 µM each time.

For `O=C(CC(=O)C(F)(F)F)Nc1cccc(-c2cnc3ccccc3n2)c1` [Example 26, 4,4,4-trifluoro-3-oxo-N-(3-(quinoxalin-2-yl)phenyl)butanamide], the IC50 in assay [1], in assay [4], in assay [2] and in assay [3] was over 10 µM each time.

For the compound `O=C(CCCCl)Nc1cccc(-c2cnc3ccccc3n2)c1` [Example 5, 4-chloro-N-[3-(quinoxalin-2-yl)phenyl]butanamide], the half-maximal inhibitory concentration (IC50) in assay [1], in assay [4], in assay [2] and in assay [3] was over 50 µM throughout.

Consider `C=CC(=O)Nc1cccc(-c2cnc3ccccc3n2)c1` [Example 22, N-(3-(quinoxalin-2-yl)phenyl)acrylamide], for which the IC50 was 0.045 µM in assay [1], over 10 µM in assay [5], over 10 µM in assay [2] and over 10 µM in assay [3].

With `CC(=O)SCC(=O)Nc1cccc(-c2cnc3ccccc3n2)c1` [Example 30, S-2-oxo-2-(3-(quinoxalin-2-yl)phenylamino)ethyl ethanethioate], the IC50 in assay [1], in assay [4], in assay [2] and in assay [3] was over 10 µM in each case.

Turning to `O=S(=O)(Nc1cccc(-c2cnc3ccccc3n2)c1)c1cccs1` [Example 13, N-[3-(quinoxalin-2-yl)phenyl]thiophene-2-sulfonamide], the IC50 was over 50 µM in assay [1], 55.5 µM in assay [5], over 50 µM in assay [2] and over 50 µM in assay [3].

With `CS(=O)(=O)Nc1cccc(-c2cnc3ccccc3n2)c1` [Example 15, N-[3-(quinoxalin-2-yl)phenyl]methanesulfonamide], the half-maximal inhibitory concentration (IC50) is over 50 µM in assay [1], 18.5 µM in assay [4], over 50 µM in assay [2] and over 50 µM in assay [3].

In the case of `O=C(CN1CCOCC1)Nc1cccc(-c2cnc3ccccc3n2)c1` [Example 20, 2-morpholino-N-(3-(quinoxalin-2-yl)phenyl)acetamide], the IC50 is 34 µM in assay [1], over 50 µM in assay [4], over 50 µM in assay [2] and over 50 µM in assay [3].

Take `C=CCC(=O)Nc1cccc(-c2cnc3ccccc3n2)c1` [Example 23, N-(3-(quinoxalin-2-yl)phenyl)but-3-enamide]: the IC50 in assay [1], in assay [4], in assay [2] and in assay [3] was over 10 µM each time.

With `O=C(Nc1cccc(-c2cnc3ccccc3n2)c1)c1ccco1` [Example 12, N-[3-(quinoxalin-2-yl)phenyl]furan-2-carboxamide], the concentration for half-maximal inhibition (IC50) in assay [1] is over 50 µM; in assay [4], 24.6 µM; in assay [2], over 50 µM; in assay [3] it was over 50 µM.

For `O=C(CN1CCN(c2ccncc2)CC1)Nc1cccc(-c2cnc3ccccc3n2)c1` [Example 33, 2-(4-(pyridin-4-yl)piperazin-1-yl)-N-(3-(quinoxalin-2-yl)phenyl)acetamide], the IC50 in assay [1], in assay [4], in assay [2] and in assay [3] was over 10 µM each time.

Take “2-[4-(4-chlorophenyl)piperazin-1-yl]-N-(3-(quinoxalin-2-yl)phenyl)acetamide [Example 4]”: the IC50 in assay [1] was 2.7 µM; in assay [5] it was over 20 µM; in assay [2] it was over 20 µM; in assay [3], over 20 µM.

As to `NS(=O)(=O)CCC(=O)Nc1cccc(-c2cnc3ccccc3n2)c1` [Example 36, 3-(aminosulfonyl)-N-[3-(2-quinoxalinyl)phenyl]propanamide], the IC50 in assay [1], in assay [4], in assay [2] and in assay [3] was over 10 µM in each case.

Take `CC(=O)OCC(=O)Nc1cccc(-c2cnc3ccccc3n2)c1` [Example 28, 2-oxo-2-(3-(quinoxalin-2-yl)phenylamino)ethyl acetate]: the IC50 is 150 µM in assay [1], over 10 µM in assay [4], over 10 µM in assay [2] and over 10 µM in assay [3].

Take `CN(C)CC(=O)Nc1cccc(-c2cnc3ccccc3n2)c1` [Example 2, N^2,N^2-dimethyl-N^1-(3-quinoxalin-2-ylphenyl)glycinamide]: the IC50 in assay [1], in assay [4], in assay [2] and in assay [3] was over 50 µM in each case.

In the case of `O=C(CN1CCCC1)Nc1cccc(-c2cnc3ccccc3n2)c1` [Example 3, 2-pyrrolidin-1-yl-N-(3-quinoxalin-2-ylphenyl)acetamide], the IC50 in assay [1], in assay [4], in assay [2] and in assay [3] was over 20 µM each time.

Regarding `CCOC(=O)CC(=O)Nc1cccc(-c2cnc3ccccc3n2)c1` [Example 32, ethyl 3-oxo-3-(3-(quinoxalin-2-yl)phenylamino)propanoate], the IC50 in assay [1], in assay [4], in assay [2] and in assay [3] was over 10 µM in each case.
